Measurements from ChEMBL document CHEMBL1123168 (J Med Chem, 1986).

How the values were obtained:
Canis familiaris [1] = assay: Cardiotonic activity by increasing heart rate (HR) in phenobarbital-anesthetized dogs after intravenous administration; type: functional, Canis lupus familiaris
Canis familiaris [2] = assay: Cardiotonic activity in increasing contractility in phenobarbital-anesthetized dogs after intravenous administration; type: functional; settings: Canis lupus familiaris
Canis familiaris [3] = assay: Cardiotonic activity by decreasing mean arterial blood pressure(MAP) in phenobarbital-anesthetized dogs after intravenous administration; type: functional, Canis lupus familiaris, Artery
Phosphodiesterase 3 = Phosphodiesterase 3 (Homo sapiens, UniProt Q14432+Q13370); assay: Cardiotonic effect by inhibition of cAMP phosphodiesterase (PDE III); type: protein assay, Canis lupus familiaris

SMILES	Heart rate (Canis familiaris [1])	ED50 (Canis familiaris [2])	MAP (Canis familiaris [3])	IC50 (Phosphodiesterase 3)
Cc1nc(O)c(N)cc1-c1ccncc1	9 beats min-1	0.055 mg/kg	10 mmHg	31 µM
CCCc1nc(O)c(C#N)cc1-c1ccncc1	25 beats min-1	0.748 mg/kg	20 mmHg	38 µM
Nc1cc(-c2ccncc2)c[nH]c1=O [INAMRINONE]	13 beats min-1	1.89 mg/kg	16 mmHg	
CCc1nc(O)c(C#N)cc1-c1ccncc1	19 beats min-1	0.12 mg/kg	12 mmHg	12 µM
Cc1[nH]c(=O)c(C#N)cc1-c1ccncc1 [MILRINONE]	14 beats min-1	0.037 mg/kg	10 mmHg	
